Test results reported in patent US3957987A, “Compositions containing a carbonamidoquinoxaline-di-N-oxide and method of using same” (Bayer Aktiengesellschaft, priority 1971, dated 1976).
In brackets after ≈: the same amount, converted by molar mass.

Legend:
[1] = test system: Klebsiella 63; experiment: Minimum inhibitory concentration in vitro, Klebsiella 63; type: cell-based
Description: (§1) As representative of the spectrum of antimicrobial activity for these compounds, the following representative minimum inhibitory concentrations shown on Tables A, B and C can be noted:
(§2) Minimum Inhibitory Concentrations In Vitro, in μg/ml of Medium

[2] = test system: Klebsiella 8085; experiment: Minimum inhibitory concentration in vitro, Klebsiella 8085; type: cell-based
Description: as §1, §2

[3] = test system: Staphylococcus aureus 133; experiment: Minimum inhibitory concentration in vitro, Staphylococcus aureus 133; type: cell-based
Description: as §1, §2

[4] = test system: Streptococcus pyogenes; experiment: Minimum inhibitory concentration in vitro, Streptococcus pyogenes; type: cell-based
Description: as §1, §2

[5] = test system: Clostridium tetani; experiment: microbe, parasite or virus in culture; type: cell-based; conditions: read-out: minimum inhibitory concentration
[6] = test system: Clostridium botulinum; experiment: microbe, parasite or virus in culture; type: cell-based; conditions: read-out: minimum inhibitory concentration
[7] = test system: Mycoplasma MS; experiment: Minimum inhibitory concentration, Mycoplasma MS; type: cell-based
Description: (§3) As representative of the spectrum of antimicrobial activity for these compounds, the following representative minimum inhibitory concentrations shown on Tables A, B and C can be noted: […]

[8] = test system: Mycoplasma S6; experiment: Minimum inhibitory concentration, Mycoplasma S6; type: cell-based
[9] = test system: Mycoplasma gran; experiment: Minimum inhibitory concentration, Mycoplasma gran; type: cell-based
[10] = test system: Pasteurella multocida ATCC; experiment: Minimum inhibitory concentration, Pasteurella multocida ATCC; type: cell-based
[11] = test system: Alcaligenes faecalis ATCC; experiment: Minimum inhibitory concentration, Alcaligenes faecalis ATCC; type: cell-based
[12] = test system: Bordetella bronchiseptica; experiment: Minimum inhibitory concentration, Bordetella bronchiseptica; type: cell-based
[13] = test system: Aeromonas liquefaciens; experiment: Minimum inhibitory concentration, Aeromonas liquefaciens; type: cell-based; conditions: Aeromonas hydrophila
[14] = test system: Mycobacterium species; experiment: Minimum inhibitory concentration, Mycobacterium species; type: cell-based
Description: as §3

[15] = Chick Fattening Test; type: in vivo; conditions: for Relative Weight Increase (%) after 14 days / Relative Weight Increase (%) after 28 days: control 100.0
Description: The use of these compounds as feed additives can be seen from the following feeding experiments (Table D).
Chicks in groups of 12 were kept in cages and supplied with water ad libitum and a complete chick feed into which was intimately mixed the indicated amount of the test compound.

[16] = test system: Escherichia coli C 165; experiment: Minimum inhibitory concentration in vitro, Escherichia coli C 165; type: cell-based; conditions: C165
Description: as §1, §2

| Structure (SMILES) | MIC [2] [µg/mL] | MIC [3] [µg/mL] | MIC [4] [µg/mL] | MIC [5] [µg/mL] | MIC [6] [µg/mL] | MIC [7] [µg/mL] | MIC [8] [µg/mL] | MIC [9] [µg/mL] | MIC [10] [µg/mL] | MIC [11] [µg/mL] | MIC [12] [µg/mL] | MIC [13] [µg/mL] | MIC [14] [µg/mL] | other results |
| --- | --- | --- | --- | --- | --- | --- | --- | --- | --- | --- | --- | --- | --- | --- |
| COC(=O)NN=Cc1c(C(=O)N2CCCCC2)[n+]([O-])c2ccccc2[n+]1[O-] [Example 10] | 100 (≈ 268 µM) | 100 (≈ 268 µM) | 100 (≈ 268 µM) | 10 (≈ 26.8 µM) | 10 (≈ 26.8 µM) | 100 (≈ 268 µM) | 10 (≈ 26.8 µM) | 10 (≈ 26.8 µM) | 1 (≈ 2.68 µM) | 100 (≈ 268 µM) | 100 (≈ 268 µM) | 100 (≈ 268 µM) | 100 (≈ 268 µM) | MIC [1]: 100 µg/mL (≈ 268 µM) |
| CCN(CC)C(=O)c1c(C=NNC(=O)OC)[n+]([O-])c2ccccc2[n+]1[O-] [Example 11] | 100 (≈ 277 µM) | 100 (≈ 277 µM) | 100 (≈ 277 µM) | 10 (≈ 27.7 µM) | 10 (≈ 27.7 µM) | 100 (≈ 277 µM) | 10 (≈ 27.7 µM) | 10 (≈ 27.7 µM) | 1 (≈ 2.77 µM) | 100 (≈ 277 µM) | 100 (≈ 277 µM) | 100 (≈ 277 µM) | 100 (≈ 277 µM) | MIC [1]: 100 µg/mL (≈ 277 µM) |
| COC(=O)NN=Cc1c(C(=O)NCCO)[n+]([O-])c2ccccc2[n+]1[O-] [Example 14] | 100 (≈ 286 µM) | 100 (≈ 286 µM) | 100 (≈ 286 µM) | 100 (≈ 286 µM) | 100 (≈ 286 µM) | – | 100 (≈ 286 µM) | 100 (≈ 286 µM) | 100 (≈ 286 µM) | 100 (≈ 286 µM) | 100 (≈ 286 µM) | 100 (≈ 286 µM) | – | – |
| COC(=O)NN=Cc1c(C(=O)NC2CCCCC2)[n+]([O-])c2ccccc2[n+]1[O-] [Example 16] | 100 (≈ 258 µM) | 100 (≈ 258 µM) | 100 (≈ 258 µM) | 100 (≈ 258 µM) | 100 (≈ 258 µM) | – | 100 (≈ 258 µM) | 100 (≈ 258 µM) | 100 (≈ 258 µM) | 100 (≈ 258 µM) | 100 (≈ 258 µM) | 100 (≈ 258 µM) | – | – |
| O=C(NCCO)c1c(C=NO)[n+]([O-])c2ccccc2[n+]1[O-] [Example 20] | – | – | – | 100 (≈ 342 µM) | 100 (≈ 342 µM) | – | 100 (≈ 342 µM) | 100 (≈ 342 µM) | 100 (≈ 342 µM) | 100 (≈ 342 µM) | 100 (≈ 342 µM) | 100 (≈ 342 µM) | 100 (≈ 342 µM) | Relative Weight Increase (%) after 14 days ([15]; Test 1, 50 ppm in feed): 107.4%; Absolute Weight Increase (g) of each animal after 14 days ([15]; Test 1, 50 ppm in feed, control 111.5): 119.9 g; Average Weight of each animal after 14 days ([15]; Test 1, 50 ppm in feed, control 170.8, initial weight 59.3 g): 179.2; Relative Weight Increase (%) after 28 days ([15]; Test 1, 50 ppm in feed): 104.1%; Absolute Weight Increase (g) of each animal after 28 days ([15]; Test 1, 50 ppm in feed, control 275.9): 287.3 g; Average Weight of each animal after 28 days ([15]; Test 1, 50 ppm in feed, control 335.2, initial weight 59.3 g): 346.6; Relative Weight Increase (%) after 14 days ([15]; Test 2, 10 ppm in feed): 104.5%; Absolute Weight Increase (g) of each animal after 14 days ([15]; Test 2, 10 ppm in feed, control 109.2): 114.2 g; Average Weight of each animal after 14 days ([15]; Test 2, 10 ppm in feed, control 168.3, initial weight 59.1 g): 173.3; Relative Weight Increase (%) after 28 days ([15]; Test 2, 10 ppm in feed): 102.2%; Absolute Weight Increase (g) of each animal after 28 days ([15]; Test 2, 10 ppm in feed, control 292.5): 299.2 g; Average Weight of each animal after 28 days ([15]; Test 2, 10 ppm in feed, control 351.6, initial weight 59.1 g): 358.3; Relative Weight Increase (%) after 14 days ([15]; Test 2, 20 ppm in feed): 106.8%; Absolute Weight Increase (g) of each animal after 14 days ([15]; Test 2, 20 ppm in feed, control 109.2): 116.7 g; Average Weight of each animal after 14 days ([15]; Test 2, 20 ppm in feed, control 168.3, initial weight 59.1 g): 175.8; Relative Weight Increase (%) after 28 days ([15]; Test 2, 20 ppm in feed): 102.8%; Absolute Weight Increase (g) of each animal after 28 days ([15]; Test 2, 20 ppm in feed, control 292.5): 300.9 g; Average Weight of each animal after 28 days ([15]; Test 2, 20 ppm in feed, control 351.6, initial weight 59.1 g): 360.0 |
| COC(=O)NN=Cc1c(C(=O)N2CCOCC2)[n+]([O-])c2ccccc2[n+]1[O-] [Example 21] | – | – | – | 100 (≈ 266 µM) | 1 (≈ 2.66 µM) | 10 (≈ 26.6 µM) | 1 (≈ 2.66 µM) | 0.1 (≈ 0.266 µM) | 10 (≈ 26.6 µM) | 100 (≈ 266 µM) | 100 (≈ 266 µM) | 1 (≈ 2.66 µM) | 100 (≈ 266 µM) | – |
| CCNC(=O)c1c(C=NO)[n+]([O-])c2ccccc2[n+]1[O-] [Example 22] | – | – | – | 100 (≈ 362 µM) | 1 (≈ 3.62 µM) | 100 (≈ 362 µM) | 10 (≈ 36.2 µM) | 10 (≈ 36.2 µM) | 10 (≈ 36.2 µM) | 100 (≈ 362 µM) | 100 (≈ 362 µM) | 0.1 (≈ 0.362 µM) | 100 (≈ 362 µM) | – |
| CCCNC(=O)c1c(C=NO)[n+]([O-])c2ccccc2[n+]1[O-] [Example 23] | – | – | – | 100 (≈ 344 µM) | 1 (≈ 3.44 µM) | 100 (≈ 344 µM) | 100 (≈ 344 µM) | 1 (≈ 3.44 µM) | 100 (≈ 344 µM) | 100 (≈ 344 µM) | 100 (≈ 344 µM) | 100 (≈ 344 µM) | 100 (≈ 344 µM) | – |
| CC(C)NC(=O)c1c(C=NO)[n+]([O-])c2ccccc2[n+]1[O-] [Example 24] | – | – | – | 100 (≈ 344 µM) | 1 (≈ 3.44 µM) | 100 (≈ 344 µM) | 100 (≈ 344 µM) | 1 (≈ 3.44 µM) | 100 (≈ 344 µM) | 100 (≈ 344 µM) | 100 (≈ 344 µM) | 100 (≈ 344 µM) | 100 (≈ 344 µM) | – |
| CNC(=O)c1c(C=NNC(=O)OCCO)[n+]([O-])c2ccccc2[n+]1[O-] [Example 25] | – | – | – | 100 (≈ 286 µM) | 1 (≈ 2.86 µM) | 100 (≈ 286 µM) | 100 (≈ 286 µM) | 1 (≈ 2.86 µM) | 100 (≈ 286 µM) | 100 (≈ 286 µM) | 100 (≈ 286 µM) | 100 (≈ 286 µM) | – | – |
| CCOC(=O)NN=Cc1c(C(=O)NC)[n+]([O-])c2ccccc2[n+]1[O-] [Example 26] | 10 (≈ 30 µM) | 100 (≈ 300 µM) | 100 (≈ 300 µM) | 100 (≈ 300 µM) | 1 (≈ 3 µM) | 100 (≈ 300 µM) | 100 (≈ 300 µM) | 0.1 (≈ 0.3 µM) | 100 (≈ 300 µM) | 100 (≈ 300 µM) | 100 (≈ 300 µM) | 100 (≈ 300 µM) | – | MIC [1]: 100 µg/mL (≈ 300 µM); MIC [16]: 100 µg/mL (≈ 300 µM) |
| CCOC(=O)NN=Cc1c(C(=O)NCCO)[n+]([O-])c2ccccc2[n+]1[O-] [Example 27] | 100 (≈ 275 µM) | – | 100 (≈ 275 µM) | 100 (≈ 275 µM) | 100 (≈ 275 µM) | – | 100 (≈ 275 µM) | 100 (≈ 275 µM) | 100 (≈ 275 µM) | 100 (≈ 275 µM) | 100 (≈ 275 µM) | 100 (≈ 275 µM) | – | – |
| O=C(NN=Cc1c(C(=O)NCCO)[n+]([O-])c2ccccc2[n+]1[O-])OCCO [Example 28] | – | – | – | 100 (≈ 264 µM) | 100 (≈ 264 µM) | – | 100 (≈ 264 µM) | 100 (≈ 264 µM) | 100 (≈ 264 µM) | 100 (≈ 264 µM) | 100 (≈ 264 µM) | 100 (≈ 264 µM) | – | – |
| O=C(NCCO)c1c(C=NNC(=O)N2CCOCC2)[n+]([O-])c2ccccc2[n+]1[O-] [Example 29] | – | – | – | 100 (≈ 247 µM) | 100 (≈ 247 µM) | – | 100 (≈ 247 µM) | 100 (≈ 247 µM) | 100 (≈ 247 µM) | 100 (≈ 247 µM) | 100 (≈ 247 µM) | 100 (≈ 247 µM) | 40 (≈ 98.9 µM) | – |
